The values that follow come from patent publication US20240174690A1, “ANNULATED 2-AMINO-3-CYANO THIOPHENES AND DERIVATIVES FOR THE TREATMENT OF CANCER” (BOEHRINGER INGELHEIM INTERNATIONAL GMBH, priority 2021, published 2024).

Series [1] can be described thus: Plasma protein binding assay (PPB), equilibrium dialysis, 10% FCS in PBS. It is filed as in vitro ADME. To be noted: for fraction unbound: bovine, read-out: PPB 10% FCS (% fu). In outline:
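Test compound (1-10 μmol/L) in 10% FCS in PBS was dialysed for 3-5 h at 37° C versus PBS ± dextran across a semipermeable membrane. LC-MS of both compartments after protein precipitation gave Cserum and Cbuffer, from which the unbound fraction fu was derived.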
A general note: In equilibrium dialysis only unbound substance equilibrates across the membrane.

Series [2] has as its system KRAS G12V-dependent Ba/F3 cells. The series is described as follows: Ba/F3 proliferation assay, KRAS G12V.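 Also: proliferation IC50 in KRAS G12V-dependent Ba/F3 cells read by AlamarBlue.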 It counts as cell-based. To be noted: AlamarBlue. Summed up: (§1)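 IL-3-independent Ba/F3 lines driven by transduced KRAS G12C, G12D or G12V, with puromycin withdrawn about ten days before testing. Viability after compound treatment measured by AlamarBlue fluorescence in duplicate, and values derived by curve fitting.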
Background: Alamar Blue is a resazurin reagent that responds to reducing activity.

A short description of series [3]: Metabolic (microsomal) stability assay, human liver microsomes (HLM). It counts as in vitro ADME. To be noted: predicted clearance as percent of liver blood flow, 1 μM. In outline:
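LC-MS/MS tracked parent disappearance at 0, 5, 15, 30 and 60 min in NADPH-initiated incubations with 1 mg/mL human microsomal protein and 1 μM compound at 37°C, pH 7.5. First-order fits gave intrinsic clearance, which was scaled up and reported as % QH. NADPH-free controls were also run.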

The test system of series [4] is KRAS G12D-dependent Ba/F3 cells. Description: Ba/F3 proliferation assay, KRAS G12D. It counts as cell-based. As to conditions: AlamarBlue. Summed up: as §1
In series [5] the test system is SAS cells. The series is described as follows: SAS CTG proliferation assay (120 h) (HNSCC, wt amplified). It counts as cell-based. In outline:
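Viability measured by CellTiter-Glo luminescence, normalized to DMSO wells, after 120 h compound treatment of SAS cells. Cells grown in DMEM:F12 plus 10% FCS at 300 cells per well, dosed the day after seeding. Four-parameter fit gives IC50.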

For the compound `C[C@H](Oc1nc(-c2noc3c2CCC[C@@]32CCCc3sc(N)c(C#N)c32)nc(N2CCN(C)C3(CC3)C2)c1Cl)[C@@H]1C[C@@H](F)CN1C` [II-176], the fraction unbound in series [1] came out at 0.01. Besides, the IC50 (usually the concentration at which inhibition is half-maximal) in series [2] (Mus musculus, BaF3, 72 h) amounted to 1210 nM; in series [4] (Mus musculus, BaF3, 72 h), 112 nM; in series [5], 4940 nM. In addition, the “HLM QH” value in series [3] is 63%.

Consider `C[C@H](Oc1cc(-n2ccc(C(=O)N[C@H]3CCOC3)n2)nc(-c2noc3c2CCC[C@@]32CCCc3sc(N)c(C#N)c32)n1)[C@@H]1CCCN1C` [II-193], for which, in series [1] (fraction unbound), the “PPB 10% FCS (% fu)” value is 20 % fu. The values for the IC50 in series [2] (72 h), in series [4] (72 h) and in series [5] were 2 nM, 9 nM and 10 nM, respectively. Also, the “HLM QH” value in series [3] is 31%.

As to `C[C@H](Oc1cc(-c2ccn(C)n2)nc(-c2noc3c2CCC[C@@]32CCCc3sc(N)c(C#N)c32)n1)[C@@H]1C[C@H](F)CN1C` [II-144], the fraction unbound in series [1] came out at 0.11. The “HLM QH” value in series [3] is 75%. The IC50 in series [4] (Mus musculus, BaF3, 72 h) is 4 nM; in series [5], 302 nM.

Regarding `C[C@H](Oc1cc([C@H]2CCNC2)nc(-c2noc3c2CCC[C@@]32CCCc3sc(N)c(C#N)c32)n1)[C@@H]1CCCN1C` [II-163], in series [1], the fraction unbound amounted to 0.61. Moreover, the half-inhibitory concentration (IC50) was 322 nM in series [2] (Mus musculus, BaF3, 72 h); 97 nM in series [4] (Mus musculus, BaF3, 72 h); 274 nM in series [5].

Consider `C[C@H]1CNCCCN1c1cc(-c2ccn(C)n2)nc(-c2noc3c2CCC[C@@]32CCCc3sc(N)c(C#N)c32)n1` [II-140], for which the “HLM QH” value in series [3] is recorded as below 24%. Further, the IC50 in series [4] (Mus musculus, BaF3, 72 h) was determined as 2240 nM; in series [5], 128 nM.

Turning to `CCN1CCN(c2cc(O[C@@H](C)[C@@H]3C[C@@H](F)CN3C)nc(-c3noc4c3CCC[C@@]43CCCc4sc(N)c(C#N)c43)n2)CC12CC2` [II-185], the fraction unbound in series [1] worked out at 0.02. The IC50 is 334 nM in series [2] (Mus musculus, BaF3, 72 h); 47 nM in series [4] (Mus musculus, BaF3, 72 h); 2420 nM in series [5].

On to `C[C@H]1CNCCCN1c1nc(-c2onc3c2CCC[C@@]32CCCc3sc(N)c(C#N)c32)cc(C(F)(F)F)n1` [I-15], for which, in series [1], the fraction unbound amounted to 0.08. The “HLM QH” value in series [3] is on record as 38%. Besides, inhibition in series [4] (Mus musculus, BaF3, 72 h) was half-maximal at 1130 nM (IC50).

Turning to `C[C@H](NC(=O)c1ccn(-c2cc(O[C@@H](C)[C@@H]3CCCN3C)nc(-c3noc4c3CCC[C@@]43CCCc4sc(N)c(C#N)c43)n2)n1)c1ccccn1` [II-191], in series [1], the fraction unbound came out at 0.03. Besides, the “HLM QH” value in series [3] was 32%. The IC50 was 11 nM in series [4] (Mus musculus, BaF3, 72 h) and 10 nM in series [5].

As to `C[C@H](Oc1cc(-n2ccc(-c3cn([C@H]4CCOC4)nn3)n2)nc(-c2noc3c2CCC[C@@]32CCCc3sc(N)c(C#N)c32)n1)[C@@H]1CCCN1C` [II-212], the fraction unbound in series [1] turned out to be 0.05. Also, the “HLM QH” value in series [3] is recorded as below 24%. Further, the IC50 was determined as 10 nM in series [4] (Mus musculus, BaF3, 72 h) and 19 nM in series [5].

As to `CC(C)N1CCCN(c2cc(-n3ccnc3)nc(-c3noc4c3CCC[C@@]43CCCc4sc(N)c(C#N)c43)n2)[C@@H](C)C1` [II-169], the 50% inhibitory concentration (IC50) in series [2] (Mus musculus, BaF3, 72 h) was found to be 61 nM; in series [4] (Mus musculus, BaF3, 72 h), 285 nM; in series [5], 4410 nM. Further, the “HLM QH” value in series [3] is listed as 39%.

Turning to `C[C@H]1CNCCCN1c1cc(-n2ccnc2)nc(-c2noc3c2CCC[C@@]32CCCc3sc(N)c(C#N)c32)n1` [II-142], the IC50 is 1770 nM in series [2] (Mus musculus, BaF3, 72 h); 5860 nM in series [4] (Mus musculus, BaF3, 72 h); 6110 nM in series [5].

Turning to `C[C@H](Oc1cc(-n2cncc3ccnc2-3)nc(-c2onc3c2CCC[C@@]32CCCc3sc(N)c(C#N)c32)n1)[C@@H]1CCCN1C` [I-14], the fraction unbound in series [1] was 0.1. The IC50 in series [2] (Mus musculus, BaF3, 72 h) is 7 nM; in series [4] (Mus musculus, BaF3, 72 h), 18 nM; in series [5] it was 25 nM.

Take `CNC1CCN(c2cc(O[C@@H](C)[C@@H]3CCCN3C)nc(-c3noc4c3CCC[C@@]43CCCc4sc(N)c(C#N)c43)n2)CC1` [II-214]: in series [1], the fraction unbound came out at 0.81. Besides, the IC50 in series [2] (Mus musculus, BaF3, 72 h) was found to be 1360 nM; in series [4] (Mus musculus, BaF3, 72 h), 1710 nM. In addition, the “HLM QH” value in series [3] is on record as below 24%.
